Like-named read-outs stand apart in the source and are kept apart here.
Experiments:
[1] = test system: Escherichia coli; assay: Single-point BisEDT-antibiotic combination FICI; assay type: cell-based
[2] = test system: Pseudomonas aeruginosa; assay: Single-point BisEDT-antibiotic combination FICI; assay type: cell-based; conditions: PA 1380
[3] = test system: P. aeruginosa; assay: Checkerboard broth microdilution MIC and FICI; assay type: cell-based, Pseudomonas aeruginosa; conditions: Pseudomonas aeruginosa, compound alone, read-out: MIC (μg/mL) Alone
Protocol: (§1) The effects of combinations of microparticulate Bis-EDT and four Bis-EDT analogs prepared as described above, and other agents against representative strains of several Gram-negative pathogenic bacteria were tested. A modification of a common laboratory method was used to determine synergism (FICI≦0.5), enhancement (0.5<FICI≦1.0), antagonism (FICI>4.0) and indifference (1.0<FICI≦4.0) used fractional inhibitory concentrations (FICs) and FIC indices (FICI) (Eliopoulos G and R Moellering. 1991. Antimicrobial combinations. In Antibiotics in Laboratory Medicine, Third Edition, edited by V Lorian. Williams and Wilkins, Baltimore, Md., pp. 432-492; Odds, 2003 J. Antimicrob. Chemother. 52(1):1). The checkerboard technique was used to determine FIC indices and was employed in this study.
(§2) Stock solutions of all test articles were prepared at 40× the final target concentration in the appropriate solvent. […] The final drug concentrations in the FIC assay plates were set to bracket the MIC value of each agent for each test organism, unless the strain was totally resistant to the test agent. […] The test organisms were originally received from clinical sources, or from the American Type Culture Collection. Upon receipt, the isolates were streaked onto Tryptic Soy Agar II (TSA). Colonies were harvested from these plates and a cell suspension was prepared in an appropriate broth growth medium containing cryoprotectant. Aliquots were then frozen at −80° C. The frozen seeds of the organisms to be tested in a given assay were thawed, streaked for isolation onto TSA plates, and incubated at 35° C. All organisms were tested in Mueller Hinton II Broth (Becton Dickinson, Lot No. 9044411). The broth was prepared at 1.05× normal weight/volume to offset the 5% volume of the drugs in the final test plates.
(§3) Minimal Inhibitory Concentration (MIC) values were previously determined using the broth microdilution method for aerobic bacteria (Clinical and Laboratory Standards Institute (CLSI). Methods for Dilution Antimicrobial Susceptibility Tests for Bacteria That Grow Aerobically; Approved Standard—Eighth Edition. CLSI document M07-A8 [ISBN 1-56238-689-1]. Clinical and Laboratory Standards Institute, 940 West Valley Road, Suite 1400, Wayne, Pa. 19087-1898 USA, 2009.).
(§4) FIC values were determined using a broth microdilution method previously described (Sweeney et al., 2003 Antimicrob. Agents Chemother. 47(6):1902-1906). To prepare the test plates, automated liquid handlers (Multidrop 384, Labsystems, Helsinki, Finland; Biomek 2000 and Multimek 96, Beckman Coulter, Fullerton Calif.) were used to conduct serial dilutions and liquid transfers.
(§5) The appropriate wells of standard 96-well microdilution plates (Falcon 3918) were filled with 150 μL of the appropriate solvent in columns 2-12 using the Multidrop 384. Three hundred microliters of each secondary test drug was added to each well in Column 1 of the plates. These plates were used to prepare the drug “mother plates” which provided the serial drug dilutions for the drug combination plates. The Biomek 2000 was used to transfer 150 μL of each secondary drug solution (40×) from the wells in Column 1 of the mother plate and to make eleven 2-fold serial dilutions. Mother plates of Bis-EDT (and analogs) were serial diluted top to bottom by hand, using a multichannel pipette. Two mother plates, one for each secondary drug and one for Bis-EDT (or analogs), were combined to form a “checkerboard” pattern by transfer of equal volumes (using a multi-channel pipette) to the drug combination plate. Row H and Column 12 each contained serial dilutions of one of the agents alone for determination of the MIC.
(§6) The “daughter plates” were loaded with 180 μL of test medium using the Multidrop 384. Then, the Multimek 96 was used to transfer 10 μL of drug solution from each well of the drug combination mother plate to each corresponding well of the daughter plate in a single step.

[4] = test system: Bukholderia multivorans; assay: Single-point BisEDT-antibiotic combination FICI; assay type: cell-based; conditions: Bmult 5665
[5] = test system: Burkholderia cepacia; assay: Single-point BisEDT-antibiotic combination FICI; assay type: cell-based; conditions: Bcep 1756
[6] = test system: Acinetobacter baumanii; assay: Single-point BisEDT-antibiotic combination FICI; assay type: cell-based; conditions: Abau 2594
[7] = test system: Klebsiella pneumoniae; assay: Single-point BisEDT-antibiotic combination FICI; assay type: cell-based; conditions: KP 1231
[8] = test system: Enterococcus faecalis; assay: Single-point BisEDT-antibiotic combination FICI; assay type: cell-based; conditions: E Fc 3121
[9] = test system: Staphylococcus aureus (SA, MRSA); assay: Single-point BisEDT-antibiotic combination FICI; assay type: cell-based
[10] = test system: Streptococcus pneumoniae (SP, PRSP); assay: Single-point BisEDT-antibiotic combination FICI; conditions: PRSP 5348
[11] = test system: Gram-negative pathogenic bacteria; assay: Checkerboard broth microdilution MIC and FICI; assay type: cell-based; conditions: compound alone; for MIC: Klebsiella pneumoniae, read-out: MIC (μg/mL) Alone
Protocol: as §1, §2, §3, §4, §5, §6

Compound	FICI, single-point BisEDT-antibiotic combination ([1]; EC 102)	FICI, single-point BisEDT-antibiotic combination ([1]; EC 2232)	FICI, single-point BisEDT-antibiotic combination [2]	FICI, single-point BisEDT-antibiotic combination [4]	FICI, single-point BisEDT-antibiotic combination [5]	FICI, single-point BisEDT-antibiotic combination [6]	FICI, single-point BisEDT-antibiotic combination [7]	FICI, single-point BisEDT-antibiotic combination [8]	FICI, single-point BisEDT-antibiotic combination ([9]; MRSA 773)	FICI, single-point BisEDT-antibiotic combination ([9]; SA 100)	FICI, single-point BisEDT-antibiotic combination [10]	other results
C[C@H]1[C@H](NC(=O)/C(=N\OC(C)(C)C(=O)O)c2csc(N)n2)C(=O)N1S(=O)(=O)O [Aztreonam]	0.74	1.29	0.55	0.96	0.67	0.87	0.73	–	–	–	–	MIC ([3]; P. aeruginosa 103): 8 µg/mL; MIC ([3]; P. aeruginosa 1381): 64 µg/mL; MIC ([3]; P. aeruginosa 1384): 8 µg/mL; MIC ([3]; P. aeruginosa 1474): 8 µg/mL; MIC ([3]; P. aeruginosa 1479): 8 µg/mL; MIC ([3]; P. aeruginosa 2566): 16 µg/mL; MIC ([3]; P. aeruginosa 2568): 8 µg/mL
CO/N=C(\C(=O)N[C@@H]1C(=O)N2C(C(=O)O)=C(COC(C)=O)CS[C@H]12)c1csc(N)n1 [Cefotaxime]	1.37	1.29	0.64	1.11	1.29	1.29	0.61	0.73	2.23	1.11	1.11	MIC ([3]; P. aeruginosa 103): 16 µg/mL; MIC (μg/mL) Alone ([11]; K. pneumoniae 1355): 0.12 µg/mL; MIC (μg/mL) Alone ([11]; K. pneumoniae 2238): 8 µg/mL; MIC (μg/mL) Alone ([11]; K. pneumoniae 2549): 0.06 µg/mL; MIC ([11]; K. pneumoniae 1346): 0.06 µg/mL; MIC ([11]; K. pneumoniae 1355): 0.06 µg/mL; MIC ([11]; K. pneumoniae 2238): 16 µg/mL; MIC ([11]; K. pneumoniae 2546): 0.25 µg/mL; MIC ([11]; K. pneumoniae 2549): 0.12 µg/mL
O=C(O)c1cn(C2CC2)c2cc(N3CCNCC3)c(F)cc2c1=O [Ciprofloxacin]	1.14	–	2.75	2.29	2.23	1.04	–	–	–	–	–	–
CC[C@H]1OC(=O)[C@H](C)[C@@H](O[C@H]2C[C@@](C)(OC)[C@@H](O)[C@H](C)O2)[C@H](C)[C@@H](O[C@@H]2O[C@H](C)C[C@H](N(C)C)[C@H]2O)[C@](C)(O)C[C@@H](C)C(=O)[C@H](C)[C@@H](O)[C@]1(C)O [Erythromycin]	–	–	–	–	–	–	–	0.92	0.67	–	1.03	–
C[C@H]1COc2c(N3CCN(C)CC3)c(F)cc3c(=O)c(C(=O)O)cn1c23 [Levofloxacin]	–	–	–	–	–	–	–	1.08	1.11	1.23	0.70	–
Cc1onc(-c2ccccc2)c1C(=O)N[C@@H]1C(=O)N2[C@@H]1SC(C)(C)[C@@H]2C(=O)O [Oxacillin]	–	–	–	–	–	–	–	0.92	2.28	–	1.03	–
C[C@@H]1O[C@@H]1P(=O)(O)O [Phosphomycin]	–	1.96	1.86	1.23	1.29	1.12	1.02	1.23	0.61	–	1.45	–
CCN1CCN(C(=O)N[C@@H](C(=O)N[C@@H]2C(=O)N3[C@@H]2SC(C)(C)[C@@H]3C(=O)O)c2ccccc2)C(=O)C1=O [Piperacillin]	0.87	1.29	0.67	1.12	1.12	1.12	2.23	1.11	1.28	0.57	1.11	–
CN(C)[C@@H]1C(O)=C(C(N)=O)C(=O)[C@@]2(O)C(O)=C3C(=O)c4c(O)cccc4[C@@](C)(O)[C@H]3C[C@@H]12 [Tetracycline]	0.62	0.79	1.29	1.12	1.96	1.12	1.29	0.92	1.23	0.89	0.34	–
